Results: patent publication US20250381117A1 (MARY KAY INC., priority 2024, published 2025)
Like-named read-outs stand apart in the source and are kept apart here.

Columns and labels:
[1] = Solubility Analyses (Example 1): dissolution in water; format: physicochemical
[2] = at 25° C., cited from earlier work

SMILES: COc1ccc2[nH]cc(CCNC(C)=O)c2c1 [melatonin]
- dissolution in water ([1]; melatonin 1.2% (w/w) in the absence of caffeine): did not completely dissolve
- dissolution in water ([1]; melatonin 2% (w/w) in the absence of caffeine): did not dissolve completely
- solubility in water [2]: approximately 0.01 g/100 mL
- solubility in water ([2]; same value given in percent): approximately 0.01%
